Experimental data reported in ChEMBL document CHEMBL1141231, “Discovery and development of a new class of potent, selective, orally active oxytocin receptor antagonists” (J Med Chem, 2005).

How the values were obtained:
Oxytocin receptor = biological target: T1, Oxytocin receptor (Homo sapiens, UniProt P30559); test: biochemical; type: cell-based, HEK293-EBNA
T1 sequence (P30559 whole entry): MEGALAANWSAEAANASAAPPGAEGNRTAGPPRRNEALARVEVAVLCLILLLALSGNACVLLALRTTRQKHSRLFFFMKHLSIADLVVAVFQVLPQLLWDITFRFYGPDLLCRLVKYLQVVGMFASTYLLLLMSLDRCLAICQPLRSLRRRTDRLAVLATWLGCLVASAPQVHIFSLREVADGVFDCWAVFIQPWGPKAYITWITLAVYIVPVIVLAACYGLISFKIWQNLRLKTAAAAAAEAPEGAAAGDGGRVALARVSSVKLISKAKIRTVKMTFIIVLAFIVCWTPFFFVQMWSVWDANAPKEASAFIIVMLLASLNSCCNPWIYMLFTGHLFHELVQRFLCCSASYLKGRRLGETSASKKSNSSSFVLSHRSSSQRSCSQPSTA
Description: Displacement of [125I]OVTA antagonist from human oxytocin receptor expressed in HEK293-EBNA cells

Vasopressin V1a receptor = Vasopressin V1a receptor (Homo sapiens, UniProt P37288); test: Displacement of [125I]LVA antagonist from human vasopressin 1a receptor expressed in HEK293-EBNA cells; type: cell-based
Chain of Vasopressin V1a receptor (P37288 whole entry): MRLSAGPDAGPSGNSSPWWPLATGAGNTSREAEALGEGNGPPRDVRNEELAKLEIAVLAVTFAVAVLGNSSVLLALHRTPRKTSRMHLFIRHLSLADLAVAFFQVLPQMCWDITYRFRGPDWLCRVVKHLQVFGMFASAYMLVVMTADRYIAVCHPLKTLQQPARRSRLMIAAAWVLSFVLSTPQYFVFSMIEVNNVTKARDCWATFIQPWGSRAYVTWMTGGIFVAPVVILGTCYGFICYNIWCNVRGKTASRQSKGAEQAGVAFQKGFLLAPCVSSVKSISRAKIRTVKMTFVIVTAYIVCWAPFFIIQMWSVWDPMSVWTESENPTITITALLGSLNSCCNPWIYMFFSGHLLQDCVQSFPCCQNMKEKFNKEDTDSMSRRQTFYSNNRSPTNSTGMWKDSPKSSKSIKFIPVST

Homo sapiens = species on record: Homo sapiens; test: Selectivity for human vasopressin V1a receptor over human oxytocin receptor

Row | Ki (Oxytocin receptor) | Ki (Vasopressin V1a receptor) | Ratio Ki (Homo sapiens) | Ratio ki (Homo sapiens) | SMILES
1 | 4900 nM | 600 nM | – | – | C/C(=N\NC(=O)CN(c1cccc(Cl)c1)S(=O)(=O)c1ccccc1)c1ccccc1O
2 | 770 nM | 1600 nM | 2.1 | – | CCOc1ccc(S(=O)(=O)N(CC(=O)N2Cc3ccccc3C2C(N)=O)c2ccc(OC)cc2)cc1 (stereo unspecified)
3 | > 10000 nM | > 10000 nM | – | – | CN(C)CCCOc1ccc(S(=O)(=O)N(CC(=O)/N=N/c2c(O)[nH]c3c(C(=O)O)cccc23)c2ccc(Cl)cc2)cc1
4 | 160 nM | > 10000 nM | – | – | Cc1c(Cl)cccc1NC(=O)CN(c1ccc(Cl)cc1)S(=O)(=O)c1ccccc1
5 | > 10000 nM | > 10000 nM | – | – | CCOc1ccc(S(=O)(=O)N(CC(=O)/N=N/c2c(O)[nH]c3ccc([N+](=O)[O-])cc23)c2ccccc2)cc1
6 | 20 nM | 437 nM | – | – | COc1ccc(S(=O)(=O)N(CC(=O)N/N=C2/C(=O)Nc3ccccc32)c2ccc(C)cc2)cc1
7 | 104 nM | > 10000 nM | > 96 | – | Cc1ccc(N(CC(=O)/N=N/c2c(O)[nH]c3ccccc23)S(=O)(=O)c2ccc(-c3ccccc3)cc2)cc1
8 | 1380 nM | > 10000 nM | – | – | CCOc1ccc(S(=O)(=O)N(c2ccc(C)cc2)C(CO)C(=O)N/N=C2\C(=O)Nc3ccccc32)cc1 (stereo unspecified)
9 | > 10000 nM | > 10000 nM | – | – | CCOc1ccc(S(=O)(=O)N(CC(=O)/N=N/c2c(O)[nH]c3ccc(S(=O)(=O)O)cc23)c2ccc(C)cc2)cc1
10 | > 10000 nM | > 10000 nM | – | – | CCOc1ccc(S(=O)(=O)N(CC(=O)N/N=C/c2ccc(N(CC)CC)cc2O)c2ccc(C)cc2)cc1
11 | > 10000 nM | > 10000 nM | – | – | CCOc1ccc(S(=O)(=O)N(CC(=O)N/N=C(\C)c2c(O)ccc3ccccc23)c2ccc(C)cc2)cc1
12 | 100 nM | 300 nM | – | – | COc1ccc(N(CC(=O)Nc2cccc(Cl)c2C)S(=O)(=O)c2ccccc2)cc1
13 | 36 nM | 2120 nM | 60 | – | CCCc1ccc(S(=O)(=O)N(CC(=O)N/N=C2\C(=O)Nc3ccccc32)c2ccc(Cl)cc2)cc1
14 | – | – | > 58 | – | Cc1ccc(N(CC(=O)N/N=C2\C(=O)Nc3ccccc32)S(=O)(=O)c2cccc3ccccc23)cc1
15 | 2750 nM | 1860 nM | 0.67 | – | CCOc1ccc(S(=O)(=O)N(CC(=O)N/N=C/c2ccccn2)c2ccc(Cl)cc2)cc1
16 | 61 nM | 4940 nM | 80 | – | CC(C)(C)c1ccc(S(=O)(=O)N(CC(=O)N/N=C2/C(=O)Nc3ccccc32)c2ccc(Cl)cc2)cc1
17 | 37 nM | 510 nM | 14 | – | O=C(CN(c1ccc(Cl)cc1)S(=O)(=O)c1cccs1)N/N=C1\C(=O)Nc2ccccc21
18 | – | 1290 nM | 12 | – | COC(=O)c1cccc2c1NC(=O)/C2=N\NC(=O)CN(c1ccc(Cl)cc1)S(=O)(=O)c1ccc(OCCCN(C)C)cc1
19 | 239 nM | > 10000 nM | > 42 | – | Cc1ccc(N(CC(=O)/N=N/c2c(O)[nH]c3ccccc23)S(=O)(=O)c2ccc3ccccc3c2)cc1
20 | 60 nM | 3210 nM | 54 | – | CCOc1ccc(S(=O)(=O)N(CC(=O)N/N=C/c2ccccc2O)c2ccc(C)cc2)cc1
21 | 21 nM | 3730 nM | 175 | – | CCCOc1ccc(S(=O)(=O)N(CC(=O)N/N=C2\C(=O)Nc3ccccc32)c2ccc(C)cc2)cc1
22 | 322 nM | 1100 nM | 3 | – | CN(C)CCCOc1ccc(S(=O)(=O)N(CC(=O)N/N=C2\C(=O)N(CC(N)=O)c3ccccc32)c2ccc(Cl)cc2)cc1
23 | 93 nM | > 10000 nM | – | – | Cc1ccc(N(CC(=O)Nc2cccc(Cl)c2C)S(=O)(=O)c2ccccc2)cc1
24 | 160 nM | 115 nM | – | – | COc1ccc(N(CC(=O)N2CCc3ccccc3C2)S(=O)(=O)c2ccccc2)cc1

Row | Ki (Oxytocin receptor) | Ki (Vasopressin V1a receptor) | Ratio Ki (Homo sapiens) | Ratio ki (Homo sapiens) | SMILES
25 | > 10000 nM | > 10000 nM | – | – | CCOc1ccc(S(=O)(=O)N(CCC(=O)/N=N/c2c(O)[nH]c3ccccc23)c2ccc(C)cc2)cc1
26 | – | 1800 nM | 3.6 | – | CCOc1ccc(S(=O)(=O)N(CC(=O)N2Cc3ccccc3CC2CC(N)=O)c2ccc(C)cc2)cc1 (stereo unspecified)
27 | > 214 nM | > 10000 nM | > 47 | – | COc1ccc(-c2ccc(S(=O)(=O)N(CC(=O)/N=N/c3c(O)[nH]c4ccccc34)c3ccc(C)cc3)cc2)cc1
28 | – | 325 nM | – | – | Cc1ccc(N(CC(=O)N2CCc3ccccc3C2)S(=O)(=O)c2ccccc2)cc1
29 | 36 nM | > 10000 nM | > 275 | – | CCOc1ccc(S(=O)(=O)N(CC(=O)/N=N/c2c(O)[nH]c3ccccc23)c2ccccc2)cc1
30 | 111 nM | 6880 nM | 62 | – | Cc1ccc(N(CC(=O)N/N=C2\C(=O)Nc3ccccc32)S(=O)(=O)c2ccc(C#N)cc2)cc1
31 | > 10000 nM | > 10000 nM | – | – | CCOc1ccc(S(=O)(=O)N(CC(=O)N/N=C/c2ccccc2N)c2ccc(C)cc2)cc1
32 | 10 nM | 1390 nM | 140 | – | CCCOc1ccc(S(=O)(=O)N(CC(=O)N/N=C2\C(=O)Nc3ccccc32)c2ccc(Cl)cc2)cc1
33 | 510 nM | 1600 nM | – | 3.1 | CCOc1ccc(S(=O)(=O)N(CC(=O)N2Cc3ccccc3CC2CC(N)=O)c2ccc(OC)cc2)cc1 (stereo unspecified)
34 | 18 nM | 3980 nM | 230 | – | CCCCOc1ccc(S(=O)(=O)N(CC(=O)N/N=C2\C(=O)Nc3ccccc32)c2ccc(Cl)cc2)cc1
35 | 15 nM | 650 nM | 43 | – | CCOc1ccc(S(=O)(=O)N(CC(=O)N/N=C/c2ccccc2O)c2ccc(Cl)cc2)cc1
36 | – | – | 22 | – | COc1ccc(S(=O)(=O)N(CC(=O)N/N=C2\C(=O)Nc3ccccc32)c2ccc(C)cc2)cc1
37 | 320 nM | 570 nM | – | 1.8 | CCOc1ccc(S(=O)(=O)N(CC(=O)N2Cc3ccccc3CC2C(N)=O)c2ccc(OC)cc2)cc1 (stereo unspecified)
38 | > 10000 nM | > 10000 nM | – | – | CCOc1ccc(S(=O)(=O)N(CC(=O)N/N=C/c2ccccc2NC(C)=O)c2ccc(C)cc2)cc1
39 | > 10000 nM | > 10000 nM | – | – | CCOc1ccc(S(=O)(=O)N(CC(=O)N/N=C/c2ncc[nH]2)c2ccc(Cl)cc2)cc1
40 | 1750 nM | > 10000 nM | – | – | CCC(C)(C)c1ccc(S(=O)(=O)N(CC(=O)N/N=C2\C(=O)Nc3ccccc32)c2ccc(Cl)cc2)cc1
41 | > 10000 nM | > 10000 nM | – | – | CCOc1ccc(S(=O)(=O)N(CC(=O)N/N=C(\C)c2ccc3ccccc3c2O)c2ccc(C)cc2)cc1
42 | 448 nM | > 10000 nM | – | – | CCOc1ccc(S(=O)(=O)N(c2ccc(C)cc2)C(C)C(=O)N/N=C2\C(=O)Nc3ccccc32)cc1 (stereo unspecified)
43 | > 10000 nM | > 10000 nM | – | – | CCOc1ccc(S(=O)(=O)N(CC(=O)/N=N/c2c(O)[nH]c3ccc(I)cc23)c2ccccc2)cc1
44 | > 10000 nM | > 10000 nM | – | – | CCOc1ccc(N(CC(=O)Nc2cccc(Cl)c2C)S(=O)(=O)c2ccccc2)cc1
45 | 237 nM | > 10000 nM | – | – | C/C(=N\NC(=O)CN(c1ccccc1)S(=O)(=O)c1ccccc1)c1ccccc1O
46 | > 10000 nM | > 10000 nM | – | – | CCOc1ccc(S(=O)(=O)N(CC(=O)N/N=C(\C)c2ccc(O)cc2O)c2ccc(C)cc2)cc1
47 | 174 nM | > 10000 nM | – | – | Cc1ccc(N(CC(=O)NN=C2C(=O)Nc3ccccc32)S(=O)(=O)c2cccc3ccccc23)cc1
48 | 800 nM | 70 nM | – | – | COc1ccc(N(CC(=O)Nc2ccc(Cl)cc2C)S(=O)(=O)c2ccccc2)cc1
